Laboratory results reported in US7230116B2, “Pyrazolyl-substituted heterocycles and their use as phytosanitary products” (Bayer CropScience, AG, priority 2001, dated 2007).

Experiments:
[1] = tested on: caterpillars of the diamondback moth (Plutella xylostella); experiment: Plutella test; assay type: in vivo; settings: 500 ppm active compound
Description: (§1) Plutella Test [table] To produce a suitable preparation of active compound, 1 part by weight of active compound is mixed with the stated amounts of solvent and emulsifier, and the concentrate is diluted with emulsifier-containing water to the desired concentration. Cabbage leaves (Brassica oleracea) are treated by being dipped into the preparation of active compound of the desired concentration and are populated with caterpillars of the diamondback moth (Plutella xylostella) while the leaves are still moist. After the desired period of time, the kill in % is determined. 100% means that all caterpillars have been killed; 0% means that none of the caterpillars have been killed.

[2] = tested on: cotton aphid (Aphis gossypii); experiment: Aphis gossypii test (cotton leaves dipped); assay type: in vivo; settings: 500 ppm active compound
Description: as §1, with “Aphis gossypii” for “Plutella”, “Cotton” for “Cabbage”, “(Gossypium hirsutum) which are heavily infested by the cotton aphid (Aphis gossypii)” for “(Brassica oleracea)”, “concentration.” for “concentration and are populated with caterpillars of the diamondback moth (Plutella xylostella) while the leaves are still moist.”, “aphids” for “caterpillars”

Abutilon = experiment: Post-emergence test, greenhouse; assay type: in vivo; settings: 250 g ai/ha, after three weeks
Description: (§2) Post-Emergence Test [table] To produce a suitable preparation of active compound, 1 part by weight of active compound is mixed with the stated amount of solvent, the stated amount of emulsifier is added and the concentrate is diluted with water to the desired concentration. Test plants of a height of 5-15 cm are sprayed with the preparation of active compound such that the particular amounts of active compound desired are applied per unit area. The concentration of the spray liquor is chosen such that the particular amounts of active compound desired are applied in 1000 l of water/ha. After three weeks, the degree of damage to the plants is rated in % damage in comparison to the development of the untreated control. The figures denote: [table]

Alopecurus = experiment: Post-emergence test, greenhouse; assay type: in vivo; settings: after three weeks
Description: as §2

Setaria = experiment: Post-emergence test, greenhouse; assay type: in vivo; settings: after three weeks
Description: as §2

Sugarbeet = experiment: Post-emergence test, greenhouse; assay type: in vivo; settings: 250 g ai/ha, after three weeks
Description: as §2

Bromus = experiment: Post-emergence test, greenhouse; assay type: in vivo; settings: after three weeks
Description: as §2

Viola = experiment: Post-emergence test, greenhouse; assay type: in vivo; settings: 125 g ai/ha, after three weeks
Description: as §2

Avena fatua = experiment: Post-emergence test, greenhouse; assay type: in vivo; settings: after three weeks
Description: as §2

Oilseed rape = experiment: Post-emergence test, greenhouse; assay type: in vivo; settings: 125 g ai/ha, after three weeks
Description: as §2

Lolium = experiment: Post-emergence test, greenhouse; assay type: in vivo; settings: after three weeks
Description: as §2

[3] = tested on: caterpillars of the armyworm (Spodoptera frugiperda); experiment: Spodoptera frugiperda test; assay type: in vivo; settings: 500 ppm active compound
Description: as §1, with “Spodoptera frugiperda” for “Plutella”, “armyworm (Spodoptera frugiperda)” for “diamondback moth (Plutella xylostella)”

[4] = tested on: greenhouse red spider mite (Tetranychus urticae); experiment: Tetranychus test (OP-resistant/dip treatment); assay type: in vivo; settings: 100 ppm active compound, OP-resistant, dip treatment
Description: Tetranychus Test (OP-Resistant/Dip Treatment)
To produce a suitable preparation of active compound, 1 part by weight of active compound is mixed with the stated amounts of solvent and emulsifier, and the concentrate is diluted with emulsifier-containing water to the desired concentration.
Bean plants (Phaseolus vulgaris) which are heavily infested by all stages of the greenhouse red spider mite (Tetranychus urticae) are treated by being dipped into a preparation of active compound of the desired concentration.
After the desired period of time, the effect in % is determined. 100% means that all spider mites have been killed; 0% means that none of the spider mites have been killed.

[5] = tested on: peach aphid (Myzus persicae); experiment: Myzus test (cabbage leaves dipped); assay type: in vivo; settings: 500 ppm active compound
Description: as §1, with “Myzus” for “Plutella”, “oleracea) which are heavily infested by the peach aphid (Myzus persicae)” for “oleracea)”, “concentration.” for “concentration and are populated with caterpillars of the diamondback moth (Plutella xylostella) while the leaves are still moist.”, “aphids” for “caterpillars”

[6] = tested on: larvae of the mustard beetle (Phaedon cochleariae); experiment: Phaedon larvae test; assay type: in vivo; settings: 500 ppm active compound
Description: as §1, with “Phaedon larvae Test” for “Plutella Test”, “with larvae” for “with caterpillars”, “the mustard beetle (Phaedon cochleariae)” for “the diamondback moth (Plutella xylostella)”, “all beetle larvae” for “all caterpillars”, “the beetle larvae” for “the caterpillars”

Sinapis = experiment: Post-emergence test, greenhouse; assay type: in vivo; settings: 250 g ai/ha, after three weeks
Description: as §2

Amaranthus = experiment: Post-emergence test, greenhouse; assay type: in vivo; settings: after three weeks
Description: as §2

[7] = logP determination by HPLC (reversed-phase C18), EEC Directive 79/831 Annex V.A 8; assay type: physicochemical; settings: HPLC reversed-phase column (C 18), 43° C.; for chromatographic logP: reversed-phase C18 HPLC column, pH 2.3
Description: The logP values given for the Examples (I-2-A-a) were determined in accordance with EEC Directive 79/831 Annex V.A 8 by HPLC (High Performance Liquid Chromatography) using a reversed-phase column (C 18). Temperature: 43° C. • (a) Mobile phases for the determination in the acidic range: 0.1% aqueous phosphoric acid, acetonitrile; linear gradient from 10% acetonitrile to 90% acetonitrile. • (b) Mobile phases for the determination in the neutral range: 0.01 molar aqueous phosphate buffer solution, acetonitrile; linear gradient from 10% acetonitrile to 90% acetonitrile. Calibration was carried out using unbranched alkan-2-ones (of 3 to 16 carbon atoms) with known logP values (determination of the logP values by the retention times using linear interpolation between two successive alkanones).

COC1CCC2(CC1)NC(=O)C(n1nc(-c3ccc(Cl)cc3)cc1C)=C2O (single isomer, unassigned) [Example I-1-A-a-4]
Kill rate in % after 7d [1]: 100%
Kill rate in % after 6d [2]: 95%
% damage, Abutilon (Abutilon): 80%
% damage, Alopecurus (Alopecurus; 125 g ai/ha): 100%
% damage, Alopecurus (Alopecurus; 250 g ai/ha): 100%
% damage, Setaria (Setaria; 125 g ai/ha): 100%
% damage, Setaria (Setaria; 250 g ai/ha): 100%
% damage, Sugarbeet (Sugarbeet): 10%
% damage, Bromus (Bromus; 125 g ai/ha): 100%
% damage, Bromus (Bromus; 250 g ai/ha): 100%
% damage, Viola (Viola): 100%
% damage, Avena fatua (Avena fatua; 125 g ai/ha): 100%
% damage, Avena fatua (Avena fatua; 250 g ai/ha): 100%
% damage, Oilseed rape (Oilseed rape): 0%
% damage, Lolium (Lolium; 125 g ai/ha): 100%
% damage, Lolium (Lolium; 250 g ai/ha): 100%
Kill rate in % after 7d [3]: 100%
Kill rate in % after 7d [4]: 95%
Kill rate in % after 6d [5]: 90%
Kill rate in % after 7d [6]: 100%

CCOC(=O)OC1=C(n2nc(-c3ccc(Cl)cc3)cc2C)C(=O)NC12CCC(OC)CC2 (centres unmarked) [Example I-1-A-c-1]
% damage, Abutilon (Abutilon): 95%
% damage, Sinapis (Sinapis): 80%
% damage, Alopecurus (Alopecurus; 250 g ai/ha): 100%
% damage, Setaria (Setaria; 250 g ai/ha): 100%
% damage, Avena fatua (Avena fatua; 250 g ai/ha): 100%
% damage, Amaranthus (Amaranthus; 250 g ai/ha): 95%
Kill rate in % after 7d [3]: 100%
Kill rate in % after 7d [4]: 98%
Kill rate in % after 7d [6]: 90%

CCOC(=O)OC1=C(c2c(C)nn(-c3ccc(Cl)cc3)c2C)C(=O)NC12CCC(OC)CC2 (centres unmarked) [Example I-1-B-c-1]
% damage, Alopecurus (Alopecurus; 2000 g ai/ha): 90%
% damage, Setaria (Setaria; 2000 g ai/ha): 95%
% damage, Avena fatua (Avena fatua; 2000 g ai/ha): 90%
% damage, Amaranthus (Amaranthus; 2000 g ai/ha): 90%

COC1CCC2(CC1)OC(=O)C(n1nc(-c3ccc(Cl)cc3)cc1C)=C2O (centres unmarked) [Example I-2-A-a-1]
chromatographic logP [7]: 2.05
Kill rate in % after 7d [4]: 100%
Kill rate in % after 6d [5]: 90%

Cc1cc(-c2ccc(Cl)cc2)nn1C1=C(O)C2(CCC(C(F)(F)F)CC2)OC1=O (centres unmarked) [Example I-2-A-a-2]
logP (pH 2.3) [7]: 2.74

Cc1cc(-c2ccc(Cl)cc2)nn1C1=C(O)C(C)(C)OC1=O [Example I-2-A-a-3]
logP (pH 2.3) [7]: 1.74

CCOC1CCC2(CC1)OC(=O)C(n1nc(-c3ccc(Cl)cc3)cc1C)=C2O (centres unmarked) [Example I-2-A-a-4]
logP (pH 2.3) [7]: 2.46

Cc1cc(-c2ccc(Cl)cc2)nn1C1=C(O)C2(Cc3ccccc3C2)OC1=O [Example I-2-A-a-5]
logP (pH 2.3) [7]: 2.35

Cc1cc(-c2ccc(Cl)cc2)nn1C1=C(O)C2(CCCOC2)OC1=O (centres unmarked) [Example I-2-A-a-6]
logP (pH 2.3) [7]: 1.49

Cc1cc(-c2ccc(Cl)cc2)nn1C1=C(O)C2(CCOCC2)OC1=O [Example I-2-A-a-7]
logP (pH 2.3) [7]: 1.55

CCC1(C)OC(=O)C(n2nc(-c3ccc(Br)cc3)cc2C)=C1O (centres unmarked) [Example I-2-A-a-8]
logP (pH 2.3) [7]: 2.70

Cc1cc(-c2ccccc2)nn1C1=C(O)C(C)(C(C)C)OC1=O (centres unmarked) [Example I-2-A-a-9]
logP (pH 2.3) [7]: 1.50

Cc1cc(-c2cccc(C(F)(F)F)c2)nn1C1=C(O)C(C)(CC(C)(C)C)OC1=O (centres unmarked) [Example I-2-A-a-10]
logP (pH 2.3) [7]: 2.92

Cc1cc(-c2ccc(Cl)cc2)nn1C1=C(OC(=O)C(C)(C)C)C2(CCCOC2)OC1=O (centres unmarked) [Example I-2-A-b-1]
chromatographic logP [7]: 4.32

CCOC(=O)C1(OC(=O)Cn2nc(-c3ccc(Cl)cc3)cc2C)CCC(OC)CC1 (centres unmarked) [Example III-A-1]
chromatographic logP [7]: 4.11
